The subject of data set [1] is Daudi cell line (AID positive). Description: Primary screening cell killing assay, Daudi cell line (AID positive). The conditions noted are these: Homo sapiens, 168 h, cell death on Day 7, Cell-Titer Glo. In kind it is cell-based. Summed up: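 AID-positive Daudi cells, 1250 per well, were exposed to serially diluted compounds for 7 days at 37° C. Viability read by CellTiter-Glo luminescence; percent cell death and EC50 derived against untreated wells after media-blank subtraction.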

The subject of data set [2] is WI-38 cells (AID negative). As to the kind of experiment: Primary screening cell killing assay repeated in WI-38 cells (AID negative). In kind it is cell-based. The conditions noted are these: Homo sapiens, 168 h, cell death on Day 7, Cell-Titer Glo. Summed up: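 Cell-killing counter-screen in AID-negative WI-38 cells, probing RAD51 inhibition via AID/RAD51 synthetic lethality. Viability luminescence (RLU) was media-subtracted, normalized to DMSO wells, and converted to percent kill (1 − normalized RLU) × 100; EC50 came from non-linear regression on a semi-log scale.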

Data set [3] can be described thus: Bi-directional Caco-2 permeability. It counts as in vitro ADME. The conditions noted are these: human; for efflux ratio at 90 min: Caco-2, read-out: BA/AB Ratio; for Papp A→B at 90 min: Caco-2, apical to basolateral, read-out: AB Papp (cm/sec × 10^6); for Papp A→B at 90 min / Papp B→A at 90 min: 37 C, up to 90 minutes; for Papp B→A at 90 min: Caco-2, basolateral to apical, read-out: BA Papp (cm/sec × 10^6). The protocol: (§1) Bi-directional Caco-2 permeability was assayed. Caco-2 cells were seeded onto permeable polycarbonate supports and allowed to differentiate for about 3 weeks prior to being used in the assays. The cells were then exposed to the compounds from either the apical or basolateral sides and incubated at 37 C for up to 90 minutes under light agitation. Compound transport was then measured using LC/MS/MS analysis at 30, 60, and 90 minutes.

A short description of data set [4]: Human liver microsome stability. The conditions noted are these: human liver microsomes; for half-life / microsomal CLint: 37° C., 45 minutes; for microsomal CLint: read-out: Clearance (μg/min/mg). It counts as in vitro ADME. The protocol: The stability of the claimed compounds was determined in the presences of human liver microsomes. The compounds were incubated with the microsomes at 37° C. for 45 minutes. Samples were analyzed using LC-MS/MS. Data analysis included half-life, clearance rate, and the percentage of hepatic blood flow (% QH) for each of the compounds in the different species.

Another data set has as its system Daudi (Lymphoma). Description: Cell line screen, Daudi. It counts as cell-based. The following applies: Homo sapiens, AICDA Expression High. The protocol: (§2) The activity of the claimed compounds was measured in a variety of cell lines with different expression levels of activation induced cytidine deaminase (AICDA). The potency assay was repeated in all of the listed cell lines and the EC50 values recorded.

Another data set deals with WSU-FSCCL (Lymphoma). As to the kind of experiment: Cell line screen, WSU-FSCCL. The following applies: AICDA Expression Negative. In kind it is cell-based. How it is done: as §2
The test system of the next data set is U-698-M (Lymphoma). Description: Cell line screen, U-698-M. The following applies: AICDA Expression High. It counts as cell-based. How it is done: as §2
For the next data set, the system named is CCRF-SB (Leukemia). Description: Cell line screen, CCRF-SB. In kind it is cell-based. The conditions noted are these: Homo sapiens, AICDA Expression High. How it is done:
as §2

Another data set relates to KYSE-70 (Head and Neck). Description: Cell line screen, KYSE-70. The following applies: Homo sapiens, AICDA Expression Low. In kind it is cell-based. The protocol: as §2
Another data set relates to KG-1 (Leukemia). As to the kind of experiment: Cell line screen, KG-1. It counts as cell-based. The following applies: AICDA Expression Negative. How it is done: as §2
The next data set relates to KYSE-510 (Head and Neck). Description: Cell line screen, KYSE-510. In kind it is cell-based. The following applies: Homo sapiens, AICDA Expression Negative. How it is done:
as §2

For data set [5], the system named is ARPE19/HPV16 (HPV Immortalized RPE). Description: Cell line screen, ARPE19/HPV16. In kind it is cell-based. The conditions noted are these: ARPE-19, AICDA Expression Negative. The protocol: as §2
The test system of data set [6] is WI-38 (Normal Human Lung Fibroblast). As to the kind of experiment: Cell line screen, WI-38. In kind it is cell-based. The following applies: AICDA Expression Negative. The protocol: as §2
The nature of data set [7]: Pharmacokinetic (PK) study, plasma by LC-MS. It counts as in vivo, Rat. The following applies: po @ 80 mg/kg (30% PEG400, 10% Vitamin E TPGS in water); for half-life: plasma. The protocol: PK studies in mice were used to determine the fate of the compounds in a whole organism. Rats were treated with the compounds either orally of via IV at the indicated doses and followed for up to 24 hours. Plasma samples were taken at different time points and analyzed by LC-MS.

For a further data set, the system named is TOV-1120D (Ovary). Description: Cell line screen, TOV-1120D. In kind it is cell-based. The conditions noted are these: AICDA Expression Negative. The protocol: as §2
The test system of the next data set is OV56 (Ovary). Description: Cell line screen, OV56. The conditions noted are these: AICDA Expression Low. It counts as cell-based. The protocol:
as §2

The test system of the next data set is Caco-2 cells. As to the kind of experiment: Bi-directional Caco-2 permeability. It counts as in vitro ADME. The following applies: Caco-2. The protocol: as §1
Where [8] appears, read: Caco-2, Caco-2, AB direction, read-out: AB Recovery %.
[9] abbreviates: Caco-2, Caco-2, BA direction, read-out: BA Recovery %.

Molecules are shown by their SMILES. Where two headings read alike, the source gives them in different places. A value given as a limit tells only on which side of the number the result lay.

As for `CC(C)OC(=O)N[C@H]1CC[C@H](c2ncc(-c3ccc(NC(=O)NCc4ncccc4F)cc3S(=O)(=O)NC(C)(C)C)s2)CC1` [Ex. 31, isopropyl ((1r,4r)-4-(5-(2-(N-(tert-butyl)sulfamoyl)-4-(3-((3-fluoropyridin-2-yl)methyl)ureido)phenyl)thiazol-2-yl)cyclohexyl)carbamate], the 50% effective concentration (EC50) was at most 100 nM in data set [1]; over 1000 nM in data set [2]; 20 nM with Daudi (Lymphoma); under 40 nM with WSU-FSCCL (Lymphoma); 31 nM in the data set on U-698-M (Lymphoma); 2160 nM with CCRF-SB (Leukemia). In addition, the EC50 is 4700 nM in the data set with KYSE-70 (Head and Neck); 8780 nM in the data set with KG-1 (Leukemia); over 10000 nM with KYSE-510 (Head and Neck); over 10000 nM in [5]; over 10000 nM in [6]. The recovery at 90 min in [3] (setting [8]) was determined as 70.5%; in data set [3] (setting [9]), 92.3%. The efflux ratio at 90 min in data set [3] turned out to be 1.1. Also, the Papp A→B at 90 min in data set [3] amounted to 12.8 ×10⁻⁶ cm/s. Besides, the Papp B→A at 90 min in data set [3] amounted to 13.6 ×10⁻⁶ cm/s. Moreover, the “% QH (percentage of hepatic blood flow)” value in [4] is recorded as 77.3%. The half-life was 0.373 h in data set [4], 4.75 h in [7] (Rat Female) and 3.79 h in data set [7] (Rat Male). Moreover, in data set [4], the microsomal CLint worked out at 61.9 µL/min/mg. In addition, the “F (%) @ 5 mg/kg” value in data set [7] (Rat Female) is on record as 2.77%; in [7] (Rat Male) it was 1.49%.

Take `CC(C)OC(=O)N[C@H]1CC[C@H](c2ncc(-c3ccc(NC(=O)NCc4ccccn4)cc3S(=O)(=O)NC(C)(C)C)s2)CC1` [Ex. 29, isopropyl ((1r,4r)-4-(5-(2-(N-(tert-butyl)sulfamoyl)-4-(3-(pyridin-2-ylmethyl)ureido)phenyl)thiazol-2-yl)cyclohexyl)carbamate]: the EC50 was at most 100 nM in [1]; over 1000 nM in data set [2]; 43 nM with Daudi (Lymphoma); 67 nM in the data set on WSU-FSCCL (Lymphoma); 113 nM in the data set with U-698-M (Lymphoma); 1280 nM with CCRF-SB (Leukemia). The half-maximal effective concentration (EC50) with KYSE-70 (Head and Neck) is 4660 nM; in the data set with KG-1 (Leukemia) it was over 10000 nM; in the data set with KYSE-510 (Head and Neck) it was over 10000 nM; with TOV-1120D (Ovary), 9170 nM; in the data set on OV56 (Ovary), 9090 nM; in data set [5] it was over 10000 nM. For the same molecule, in data set [6], the EC50 is over 10000 nM. The recovery at 90 min in data set [3] (setting [8]) was found to be 93.9%; in data set [3] (setting [9]), 90.9%. The efflux ratio at 90 min in [3] is 2.2. The Papp A→B at 90 min in data set [3] was determined as 10.9 ×10⁻⁶ cm/s. Besides, the Papp B→A at 90 min in data set [3] turned out to be 24.1 ×10⁻⁶ cm/s. In addition, in [4], the “% QH (percentage of hepatic blood flow)” value turned out to be 78.8%. Further, the half-life in [4] was 0.342 h; in data set [7] (Rat Female), 4.66 h; in data set [7] (Rat Male), 3.97 h. The microsomal CLint in data set [4] came out at 68 µL/min/mg. Also, the “F (%) @ 5 mg/kg” value is on record as 8.39% in data set [7] (Rat Female) and 3.69% in [7] (Rat Male).

`CC(C)OC(=O)Nc1ccc(-c2cnc([C@@H]3CC[C@@H](NC(=O)OC(C)C)CO3)s2)c(S(=O)(=O)NC(C)(C)C)c1` (relative stereo) [Ex. 60, trans-isopropyl N-[6-[5-[2-(tert-butylsulfamoyl)-4-(isopropoxycarbonylamino)phenyl]thiazol-2-yl]tetrahydropyran-3-yl]carbamate]: the EC50 in data set [1] was 100 to 1000 nM; in data set [2] it was over 1000 nM. In addition, the “BA/AB Ratio” value in the data set with Caco-2 cells is listed as 0.9.

(Values after patent publication US10336746B1, “RAD51 inhibitors” (Cyteir Therapeutics, Inc., priority 2017, dated 2019).)
